According to PubChem BioAssay (NCI):
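Method: 48-hour compound exposure of cells in 96-well plates, five concentrations, linear interpolation of endpoints. GI50 is the concentration that inhibits growth by half. At the TGI there is no net growth.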

Tests used:
Experiment in all cases: DTP human tumour cell line panel, 48 h
A549 NSCLC = tested on: A549 NSCLC
COLO 205 colon = tested on: COLO 205 colon
HCC-2998 colon = tested on: HCC-2998 colon
KM12 colon = tested on: KM12 colon
OVCAR-4 ovarian = tested on: OVCAR-4 ovarian
SF-539 CNS = tested on: SF-539 CNS
SK-OV-3 ovarian = tested on: SK-OV-3 ovarian
SNB-75 CNS = tested on: SNB-75 CNS
SW-620 colon = tested on: SW-620 colon
UACC-62 melanoma = tested on: UACC-62 melanoma

Structure (SMILES) | TGI (A549 NSCLC) [µM] | TGI (COLO 205 colon) [µM] | TGI (HCC-2998 colon) [µM] | TGI (KM12 colon) [µM] | TGI (OVCAR-4 ovarian) [µM] | TGI (SF-539 CNS) [µM] | TGI (SK-OV-3 ovarian) [µM] | TGI (SNB-75 CNS) [µM] | TGI (SW-620 colon) [µM] | TGI (UACC-62 melanoma) [µM] | GI50 (A549 NSCLC) [µM] | GI50 (COLO 205 colon) [µM] | GI50 (HCC-2998 colon) [µM] | GI50 (KM12 colon) [µM] | GI50 (OVCAR-4 ovarian) [µM] | GI50 (SF-539 CNS) [µM] | GI50 (SK-OV-3 ovarian) [µM] | GI50 (SNB-75 CNS) [µM] | GI50 (SW-620 colon) [µM] | GI50 (UACC-62 melanoma) [µM]
CCN(CC)CCn1ccc(=O)c2cc3c(=O)ccn(CCN(CC)CC)c3c(C)c21 | 14.1 | 15.3 | 2.93 | 2.61 | 9.43 | 24.2 | 15.9 | 22.7 | 5.26 | 29.2 |  |  |  |  |  |  |  |  |  | 
CC(=O)NNc1nc(C)c(C(=O)NNC(=O)C(=O)Nc2ccccc2C#N)s1 | > 100 | > 100 | > 100 | > 100 | > 100 | > 100 | > 100 | > 100 | > 100 | > 100 |  |  |  |  |  |  |  |  |  | 
CCCCCn1c(=N)n(CC(O)COc2cccc(C)c2)c2ccccc21 (configuration not stated) | 22.9 | 3.62 | 3.98 | 15.1 | 17.6 | 24.7 | 24.2 | 16.5 | 18.3 | 18.5 | 10.2 | 1.93 | 2.1 | 4.02 | 3.67 | 11.7 | 11.8 | 2.65 | 4.26 | 4.85
CNS(=O)(=O)NN(C)S(=O)(=O)c1ccc(F)cc1 | > 100 | > 100 | > 100 | > 100 | > 100 | > 100 | > 100 | > 100 | > 100 | > 100 |  |  |  |  |  |  |  |  |  | 
C[C@@H](C(=O)Nc1ccc(Cl)cc1)C1CCC(c2ccnc3ccc(F)cc23)CC1 (some centres not stated) | > 100 | 34 | 24.3 | 34.9 | > 100 | 47.7 | 73.8 | 92.3 | > 100 | 47.2 | 9.9 | 8.8 | 4.35 | 6.01 | 5.93 | 11.8 | 15.3 | 12.5 | 19 | 10.3
Cc1cc(N(CCC#N)S(=O)(=O)c2ccccc2)ccc1/C=C1N=C(/C=C/c2ccccc2)OC\1=O | > 100 | > 100 | > 100 | > 100 |  | > 100 | > 100 | > 100 | > 100 | > 100 |  |  |  |  |  |  |  |  |  | 
Cc1[c-]onc1C.Cc1[c-]onc1C.[Ag].[Ag].[NH-]S(=O)(=O)c1ccc(N=Nc2cc(N=Nc3ccc(S([NH-])(=O)=O)cc3)c3c(NC(=O)C(Cl)Cl)cccc3c2OC(=O)C(Cl)Cl)cc1 | > 50 | 30.4 | 26 | 18.1 | 15.1 | > 50 | 18.5 | 18.9 | 12.8 | 14.5 | 11 | 5.15 | 10.9 | 7.44 | 7.66 | 14.2 | 9.66 | 6.85 | 3.54 | 7.36
COc1cccc(NC(=O)CC(=O)N2N=C(N(CCC#N)c3ccc(Cl)cc3)CC2c2ccccc2)c1 (configuration not stated) | > 100 | > 100 | > 100 | > 100 | > 100 | > 100 | > 100 | > 100 | > 100 | > 100 |  |  |  |  |  |  |  |  |  | 
N#C/C(=C1\OC(=O)C(c2ccc(Br)cc2)=C1O)c1ccc(Br)cc1 | 44.2 | 34.5 | 28.9 | 28.5 | 34.3 | 30 | 39.9 | 32.4 | 27.3 | 25.9 |  |  |  |  |  |  |  |  |  | 
COc1ccc2c(c1)C(O)(C(F)(F)F)c1cc(C(=O)C(F)(F)F)c3ccccc3c1N2 (configuration not stated) | 28.3 | 19.5 | 24.3 | 15.6 | 22.4 | 31.3 | 31.6 | 36 | 26.8 | 15.4 |  |  |  |  |  |  |  |  |  | 
CCOC(=O)C1=C(C)N(Cc2ccccc2)C(C)=C(C(=O)OCC)C1c1ccccc1O | > 100 | 31.4 | > 100 | 64.4 | > 100 | 88.8 | > 100 | > 100 | > 100 | 50.2 |  |  |  |  |  |  |  |  |  | 
CN(C(=O)C12C3C4C5C3C1(C(=O)O)C5C42)C(C)(C)C (configuration not stated) | > 100 | 72.3 | > 100 | > 100 | > 100 | > 100 | > 100 | > 100 | 60.8 | > 100 |  |  |  |  |  |  |  |  |  | 
CC1=NOC(=O)/C1=C/c1ccccc1O | > 100 | > 100 | > 100 | > 100 | > 100 | > 100 | > 100 | > 100 | 73.9 | > 100 |  |  |  |  |  |  |  |  |  | 
Cc1sc(C(=O)Nc2cc(C(=O)NCCCN(C)C)n(C)c2)cc1NC(=O)CCCN1C(=O)c2cccc3cccc(c23)C1=O | > 100 | > 100 | > 100 | > 100 | > 100 | > 100 | > 100 | > 100 | > 100 | > 100 | > 100 | > 100 | > 100 | > 100 | 41 | > 100 | > 100 | > 100 | > 100 | > 100
Nc1ccn(Cc2ccc(C34CC5CC(CC(C5)C3)C4)c(O)c2)c(=O)n1 |  | > 100 | > 100 | > 100 | > 100 | > 100 | > 100 | 84 | > 100 | > 100 |  | > 100 | 32.1 | > 100 | > 100 | 42 | > 100 | 24 | > 100 | > 100
COc1cc(Cl)cc(-c2nn(C(=O)NCCN3CCOCC3)cc2-c2ccncc2)c1 | > 100 | 11.2 | 39.7 | > 100 | > 100 | 25.9 | 19.7 | 8.78 | 32.7 | 20.4 | 9.97 | 3.16 | 7.77 | 3.79 | 12.6 | 4.57 | 3.75 | 1.73 | 4.28 | 3.72
CC(=O)NC(CCCNCc1ccccc1)C(=O)NCc1ccccc1 (configuration not stated) | > 100 | > 100 | > 100 | > 100 | > 100 | > 100 | > 100 | > 100 | > 100 | > 100 |  |  |  |  |  |  |  |  |  | 
